Measured values: article PMC6973046 (Journal of Thrombosis and Haemostasis, 2019)

How the values were obtained:
[1] = target: T1, tissue transglutaminase (Homo sapiens, UniProt P21980); assay: Isopeptidase assay; type: biochemical; settings: read-out: IC50 against tissue transglutaminase in the isopeptidase assay
T1 sequence (P21980 1-687): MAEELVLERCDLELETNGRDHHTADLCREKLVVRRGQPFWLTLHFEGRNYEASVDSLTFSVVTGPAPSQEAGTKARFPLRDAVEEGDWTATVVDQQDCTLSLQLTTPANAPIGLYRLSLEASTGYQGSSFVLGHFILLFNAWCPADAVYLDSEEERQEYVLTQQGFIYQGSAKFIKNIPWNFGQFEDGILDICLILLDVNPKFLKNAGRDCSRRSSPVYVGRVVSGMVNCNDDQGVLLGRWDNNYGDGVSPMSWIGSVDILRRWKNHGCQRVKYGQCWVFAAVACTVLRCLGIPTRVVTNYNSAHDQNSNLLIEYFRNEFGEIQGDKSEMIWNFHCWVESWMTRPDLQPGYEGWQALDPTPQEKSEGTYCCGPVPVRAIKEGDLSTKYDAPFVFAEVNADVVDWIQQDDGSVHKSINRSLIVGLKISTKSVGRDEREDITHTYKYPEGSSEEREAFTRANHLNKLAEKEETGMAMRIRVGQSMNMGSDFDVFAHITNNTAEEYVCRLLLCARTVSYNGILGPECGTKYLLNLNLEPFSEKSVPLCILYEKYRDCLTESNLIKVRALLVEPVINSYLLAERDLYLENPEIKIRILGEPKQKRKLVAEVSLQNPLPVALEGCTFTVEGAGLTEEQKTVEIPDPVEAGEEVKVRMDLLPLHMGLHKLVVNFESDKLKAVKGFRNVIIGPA

[2] = tested on: humans; settings: cited from earlier work

Row | IC50 [1] [nM] | Compound | Safety and tolerability [2]
1 | ~250 | CC(=O)CSc1n(C)c(C)c(C)[n+]1C [L‐682.777] | 
2 |  | CCC(CC)CNC(=O)Cn1cccc(NC(=O)[C@H](CC/C=C/C(=O)OC)NC(=O)c2cncn2C)c1=O [ZED1227] | safe and well tolerated
